Laboratory results from the supplement of paper PMC10307832.

Legend:
Assay in all cases: relative viability (nuclei count vs DMSO), 5 days (fraction); higher = more cells survive
Ispinesib + Crizotinib = compound: Cc1ccc(C(=O)N(CCCN)[C@@H](c2nc3cc(Cl)ccc3c(=O)n2Cc2ccccc2)C(C)C)cc1 [Ispinesib] + C[C@@H](Oc1cc(-c2cnn(C3CCNCC3)c2)cnc1N)c1c(Cl)ccc(F)c1Cl [Crizotinib] (partner 1 µM)
Outline: (§1)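 Lung cancer cell lines were seeded in 1536-well plates and dosed by pin tool the next day, with either a single drug or a fixed anchor-drug dose combined with five library-drug doses (not always all listed) spaced in √10 steps. Five days later, one step fixed the cells and stained their nuclei (final 0.05% Triton X-100, 1% formaldehyde, 1 ug/ml Hoechst), and nuclei were counted on 4× images. Relative viability is the nuclei count in treated wells divided by the count in vehicle wells, and each value is the median of duplicate plates.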

Linsitinib + Crizotinib = compound: C[C@]1(O)C[C@@H](c2nc(-c3ccc4ccc(-c5ccccc5)nc4c3)c3c(N)nccn32)C1 [Linsitinib] + C[C@@H](Oc1cc(-c2cnn(C3CCNCC3)c2)cnc1N)c1c(Cl)ccc(F)c1Cl [Crizotinib] (partner 1 µM)
Outline: as §1

Ispinesib + Pemetrexed = compound: Cc1ccc(C(=O)N(CCCN)[C@@H](c2nc3cc(Cl)ccc3c(=O)n2Cc2ccccc2)C(C)C)cc1 [Ispinesib] + Nc1nc2[nH]cc(CCc3ccc(C(=O)N[C@@H](CCC(=O)O)C(=O)O)cc3)c2c(=O)[nH]1 [Pemetrexed] (partner 0.2 µM)
Outline: as §1

Linsitinib + Pictilisib = compound: C[C@]1(O)C[C@@H](c2nc(-c3ccc4ccc(-c5ccccc5)nc4c3)c3c(N)nccn32)C1 [Linsitinib] + CS(=O)(=O)N1CCN(Cc2cc3nc(-c4cccc5[nH]ncc45)nc(N4CCOCC4)c3s2)CC1 [Pictilisib] (partner 1 µM)
Outline: as §1

Row | Cell Line | relative viability (Ispinesib + Crizotinib; first compound 0.001 µM) | relative viability (Ispinesib + Crizotinib; first compound 0.003162 µM) | relative viability (Ispinesib + Crizotinib; first compound 0.01 µM) | relative viability (Ispinesib + Crizotinib; first compound 0.03162 µM) | relative viability (Ispinesib + Crizotinib; first compound 0.1 µM) | relative viability (Linsitinib + Crizotinib; first compound 0.01 µM) | relative viability (Linsitinib + Crizotinib; first compound 0.03162 µM) | relative viability (Linsitinib + Crizotinib; first compound 0.1 µM) | relative viability (Linsitinib + Crizotinib; first compound 0.3162 µM) | relative viability (Linsitinib + Crizotinib; first compound 1 µM) | relative viability (Ispinesib + Pemetrexed; first compound 0.001 µM) | relative viability (Ispinesib + Pemetrexed; first compound 0.003162 µM) | relative viability (Ispinesib + Pemetrexed; first compound 0.01 µM) | relative viability (Ispinesib + Pemetrexed; first compound 0.03162 µM) | relative viability (Ispinesib + Pemetrexed; first compound 0.1 µM) | relative viability (Linsitinib + Pictilisib; first compound 0.01 µM) | relative viability (Linsitinib + Pictilisib; first compound 0.03162 µM) | relative viability (Linsitinib + Pictilisib; first compound 0.1 µM) | relative viability (Linsitinib + Pictilisib; first compound 0.3162 µM) | relative viability (Linsitinib + Pictilisib; first compound 1 µM)
1 | LXF-289 | 0.798 | 0.815 | 0.888 | 0.759 | 0.397 | 0.789 | 0.885 | 0.807 | 0.671 | 0.792 | 0.92 | 0.937 | 0.973 | 0.769 | 0.137 | 0.76 | 0.875 | 0.738 | 0.539 | 0.592
2 | NCI-H1792 | 1.26 | 1.16 | 0.863 | 0.736 | 0.32 | 1.01 | 0.96 | 0.951 | 0.764 | 0.746 | 1.05 | 1.15 | 0.903 | 0.448 | 0.135 | 0.314 | 0.279 | 0.192 | 0.269 | 0.179
3 | LU99A | 0.503 | 0.589 | 0.569 | 0.421 | 0.231 | 0.591 | 0.716 | 0.605 | 0.432 | 0.462 | 0.188 | 0.21 | 0.163 | 0.163 | 0.141 | 0.291 | 0.347 | 0.315 | 0.204 | 0.242
4 | SW 1573 | 0.948 | 0.66 | 1.03 | 0.724 | 0.296 | 0.801 | 0.921 | 0.796 | 0.817 | 0.577 | 0.799 | 0.791 | 0.78 | 0.279 | 0.152 | 0.453 | 0.571 | 0.471 | 0.433 | 0.425
5 | COR-L23 | 0.68 | 0.729 | 0.882 | 0.311 | 0.248 | 0.611 | 0.672 | 0.742 | 0.556 | 0.658 | 0.197 | 0.195 | 0.183 | 0.158 | 0.147 | 0.769 | 0.924 | 0.652 | 0.393 | 0.341
6 | NCI-H1755 | 0.881 | 0.622 | 0.945 | 0.864 | 0.461 | 0.833 | 0.85 | 0.901 | 0.825 | 0.81 | 0.486 | 0.439 | 0.435 | 0.496 | 0.325 | 0.422 | 0.409 | 0.442 | 0.237 | 0.372
7 | LOU-NH91 | 0.764 | 0.744 | 0.706 | 0.671 | 0.536 | 0.756 | 0.763 | 0.743 | 0.735 | 0.644 | 0.387 | 0.428 | 0.384 | 0.374 | 0.323 | 0.49 | 0.515 | 0.503 | 0.523 | 0.457
8 | EMC-BAC-2 | 0.914 | 0.847 | 0.756 | 0.751 | 0.481 | 0.8 | 0.738 | 0.696 | 0.517 | 0.688 | 0.455 | 0.418 | 0.405 | 0.352 | 0.327 | 0.47 | 0.489 | 0.496 | 0.455 | 0.412
9 | ChaGo-K-1 | 1.26 | 1.3 | 1.26 | 0.841 | 0.894 | 1.08 | 1.07 | 1.14 | 0.812 | 1.04 | 0.248 | 0.274 | 0.26 | 0.256 | 0.154 | 0.809 | 0.665 | 0.576 | 0.317 | 0.666
10 | NCI-H2023 | 0.616 | 0.657 | 0.598 | 0.457 | 0.13 | 0.57 | 0.474 | 0.753 | 0.374 | 0.359 | 0.241 | 0.241 | 0.19 | 0.144 | 0.115 | 0.233 | 0.18 | 0.172 | 0.0774 | 0.147
11 | EKVX | 1.19 | 1.34 | 1.06 | 0.689 | 0.196 | 0.895 | 0.938 | 0.99 | 0.795 | 0.943 | 0.41 | – | 0.416 | 0.337 | 0.325 | 0.464 | 0.39 | 0.43 | 0.502 | 0.375
12 | NCI-H2085 | 0.931 | 0.973 | 0.701 | 0.777 | 0.56 | 0.956 | 0.939 | 0.999 | 0.68 | 0.763 | 0.946 | 0.905 | 0.943 | 0.917 | 0.361 | 0.431 | 0.462 | 0.426 | 0.466 | 0.471
13 | NCI-H3122 | 0.28 | 0.27 | 0.274 | 0.314 | 0.202 | 0.261 | 0.281 | 0.282 | 0.323 | 0.323 | 0.196 | 0.221 | 0.198 | 0.217 | 0.107 | 0.601 | 0.58 | 0.572 | 0.499 | 0.399
14 | HCC-827 | 0.965 | 0.91 | 0.957 | 0.918 | 0.69 | 0.997 | 1.03 | 0.932 | – | 0.948 | 0.25 | 0.259 | 0.274 | 0.248 | 0.235 | 1.07 | 1.19 | 1.11 | 0.88 | 1.12
15 | HARA | 1.33 | 1.18 | 1.24 | 1.06 | 0.188 | 1.03 | 1.24 | 1.21 | 0.696 | 1.14 | 0.278 | 0.203 | 0.209 | 0.187 | 0.171 | 0.399 | 0.373 | 0.248 | 0.369 | 0.166
16 | NCI-H441 | 0.834 | 0.697 | 0.485 | 0.217 | 0.222 | 0.872 | 0.902 | 0.76 | 0.552 | 0.579 | 0.245 | 0.286 | 0.299 | 0.2 | 0.171 | 0.51 | 0.683 | 0.498 | 0.413 | 0.412
